From patent US20030212034A1, “Method of treatment of obesity and paralyzed muscle and ergogenic aids” (priority 2002, published 2003)

Columns and labels:
Type in all cases: in vivo, rat
[1] = ZMP concentration in muscle after AICAR injection; conditions: for ZMP concentration: one hour after AICAR injection in rats given daily injections for 4 weeks
Experimental: Resuspended ammonium sulfate precipitates of tissue homogenates were analyzed for AMPK activity and acetyl-CoA carboxylase activity as described previously. Li, B., et al. J. Biol. Chem. 274:17534-17540, 1999; Winder, W. W., & D. G. Hardie Am. J. Physiol. 270:E299-E304, 1996. […] ACC activity at 0.2 mM citrate provides some indication of the in vivo activity of AMPK, since ACC is a target for phosphorylation of AMPK. ACC activity has previously been reported to decrease in response to phosphorylation by AMPK. Winder, W. W., & D. G. Hardie Am. J. Physiol. 270:E299-E304, 1996. The acute experiment was also repeated on rats treated with AICAR or saline for 4 weeks to see if the responses of AMPK and ACC to AICAR persisted for the entire treatment period. In both experiments ATP and CP were measured on neutralized perchloric acid extracts of muscle.
After obtaining results on blunted acute response to an AICAR injection on AMPK in chronically treated rats, an additional experiment was done to determine if intermittent treatment of rats with AICAR would influence the extent of the increase in citrate synthase. This experiment was also of shorter duration to minimize down regulation that appeared to occur with prolonged treatment. Rats were injected for three days (1 mg/g) followed by two days of no treatment. They were then injected for five days, followed by another two days with no treatment and then for three additional days before killing 20-24 hours following the last injection. Rats were anesthetized and tissues were collected and frozen as before. Analytical methods. Muscles from rats killed 1 h after injection of AICAR or saline were analyzed for AMPK, acetyl-CoA carboxylase (ACC) at 0.2 mM citrate, ATP and CP and ZMP. Li, B., et al. J. Biol. Chem. 274:17534-17540, 1999; Winder, W. W., & D. G. Hardie Am. J. Physiol. 270:E299-E304, 1996; Heinz, F., & H. Weisser. Creatine phosphate. In: Methods of Enzymatic Analysis, edited by H. U. Bergmeyer. New York: Academic, 1983, p. 507-514.

[2] = test system: δ-Aminolevulinate synthase; assay: Muscle δ-aminolevulinate synthase protein by western blot after AICAR injection
Experimental: […] Beginning with the first injection, controls were pair fed with AICAR-injected rats. […] Muscles were kept frozen at −70° C. until analyzed. Liver, heart, kidney, and fat pads were weighed.
For the chronic effects of AICAR injection muscles were analyzed for glycogen GLUT-4, hexokinase, lactate dehydrogenase, and several mitochondrial enzymes. Hassid, W. Z., & S. Abraham Methods Enzymol. 3:35-36, 1957. GLUT4 was quantitated by western blotting as described previously using GLUT4 polyclonal antibody RaIRGT, Biogenesis, Sandown, N.H.) and horseradish peroxidase-conjugated donkey anti-rabbit IgG (Amersham Life Science, Arlington Heights, Ill.). Holmes, B. F., et al. J. Appl Physiol 87:1990-1995, 1999. δ-Aminolevulinic acid synthase was determined using western blotting techniques as described previously. Li, B., et al. J. Biol. Chem. 274:17534-17540, 1999. […] Cytochrome c was detected by incubating the nitrocellulose blots with a rabbit polyclonal antibody against rabbit heart cytochrome c (Alpha Diagnostics International, San Antonio) followed by horseradish peroxidase-conjugated anti-rabbit immunoglobulin G. Antibody bound GLUT4, δ-Aminolevulinic acid synthase, and cytochrome c were visualized using enhanced chemiluminescence. Protein bands were quantified by densitometry.

[3] = Food intake, body weight and organ weights after 4 weeks of daily AICAR injection
Experimental: (§1) To determine the effect of chronic injection of AICAR on muscle enyzme activities or expression and on muscle GLUT4, rats were injected subcutaneously (between 8 and 10 a.m.) with AICAR (1 mg/g) or saline vehicle daily for 28±1 days in succession. Beginning with the first injection, controls were pair fed with AICAR-injected rats. Rats were anesthetized by intraperitoneal injection of pentobarbital sodium 22-25 hours after the last AICAR injection and the white and red regions of the quadriceps and the soleus muscles were removed and frozen as described above. Muscles were kept frozen at −70° C. until analyzed. Liver, heart, kidney, and fat pads were weighed.

succinate dehydrogenase = assay: Muscle succinate dehydrogenase activity after chronic AICAR injection; conditions: AICAR 1 mg/g daily 4 wk, FIG. 4
Experimental: as §1
For enzyme activity measurements, 10% homogenates were made from the respective muscles in 175 mM KCl, 10 mM GSH, 2 mM EDTA, pH 7.4. This homogenate was frozen and thawed 3 times and mixed thoroughly prior to enzymatic measurements. For succinate dehydrogenase and lactate dehydrogenase, an aliquot of the homogenate was centrifuged at 700×g for 10 min at 4° C. The remainder of the assays were performed on aliquots and dilutions of the mixed whole homogenate. Assays were performed by the following methods: citrate synthase, succinate dehydrogenase, the mitochondrial fraction of malate dehydrogenase, hexokinase, lactate dehydrogenase, carnitine palmitoyl transferase and hydroxyacyl-CoA dehydrogenase. […]

[4] = AICAR 1 mg/g s.c. daily for four weeks

## NC(=O)c1ncn([C@@H]2O[C@H](CO)[C@@H](O)[C@H]2O)c1N [AICAR, 5-aminoimidazole-4-carboxamide-1-β-D-ribofuranoside]
[1]; increased 15 minutes following injection
  time course of ZMP in muscle after subcutaneous injection of AICAR: remains elevated for at least two hours
[1]; red quadriceps
  ZMP concentration: 0.94 ± 0.08 µmol/g
[1]; soleus muscle
  ZMP concentration: 1.15 ± 0.07 µmol/g
[1]; white quadriceps
  ZMP concentration: 0.42 ± 0.04 µmol/g
[2]; single AICAR injection 16 hours prior to tissue collection, preliminary, data not shown
  effect of a single injection on δ-aminolevulinate synthase: negative results
[2]; white quadriceps, AICAR 4 weeks, FIG. 2
  muscle content of δ-aminolevulinic acid synthase vs saline controls: significantly increased
[3]; [4]
  Epididymal Fat Pad weight: 1.21 ± 0.10 g
  Heart weight: 0.80 ± 0.02 g
  Kidney weight: 0.99 ± 0.02 g
  Liver weight: 16.0 ± 0.50 g
  Retroperitoneal Fat Pad weight: 0.90 ± 0.08 g
[3]; AICAR 1 mg/g s.c. daily for four weeks, pair-fed controls
  Body Weight: 254 ± 5 g
[3]; AICAR for 4 weeks, FIG. 1
  food intake and body weight vs saline injected rats: No statistically significant differences
Succinate dehydrogenase; soleus
  succinate dehydrogenase activity vs controls: all increased
Succinate dehydrogenase; white quadriceps
  succinate dehydrogenase activity vs controls: all increased
